{"source": "patent US20090311344A1", "about": "“Dosing Regimen” (priority 2008, published 2009)", "system": "chemotherapy-induced thrombocytopenia and anemia", "test": "murine models of chemotherapy-induced thrombocytopenia (CIT) and anemia", "assay_type": "in vivo", "description": "The TPO mimetic peptide compound has an estimated EC50 of approximately 5 pM (0.2 ng/mL) in a human TPO (huTPO) receptor assay in vitro and stimulates megakaryocyte lineage specific growth and differentiation in vivo.", "data": [{"substance": "Methoxypolyethyleneglycol20000-propionyl-L-Isoleucyl-L-Glutamyl-Glycyl-L-Prolyl-L-Threonyl-L-Leucyl-L-Arginyl-L-Glutaminyl-L-2-Naphthylalanyl-L-Leucyl-L-Alanyl-L-Alanyl-L-Arginyl-Sarcosyl-Ne-(methoxypolyethyleneglycol20000-propionyl-L-Isoleucyl-L-Glutamyl-Glycyl-L-Prolyl-L-Threonyl-L-Leucyl-L-Arginyl-L-Glutaminyl-L-2-Naphthylalanyl-L-Leucyl-L-Alanyl-L-Alanyl-L-Arginyl-Sarcosyl-)-Lysinamide [TPO mimetic peptide compound]", "values": [{"measurement": "effect of administration time relative to chemotherapy", "setting": "1 hour after chemotherapy compared with dosing after 24 or 96 hours", "result": "more effective"}, {"measurement": "doses at which the anti-anemic effect was observed", "setting": "following carboplatin treatment", "result": "≥ 0.03", "unit": "mg/kg"}, {"measurement": "chemotherapy-induced reduction in Hb, hematocrit and RBC count", "setting": "mouse, in vivo", "result": "prevented"}, {"measurement": "fibrinogen-positive microangiopathic lesions in small blood vessels in the brain", "setting": "mouse, in vivo", "result": "marked reduction"}, {"measurement": "minimum effective dose", "setting": "murine models of CIT, single dose, Day 12", "result": 0.1, "unit": "mg/kg"}, {"measurement": "myeloprotective effect in murine models of CIT", "setting": "single dose, Day 12", "result": "reducing the severity and duration of CIT in a dose-dependent manner"}]}]}
